Source: PMC8583042, “New Hybrid Compounds Combining Fragments of Usnic Acid and Thioether Are Inhibitors of Human Enzymes TDP1, TDP2 and PARP1” (International Journal of Molecular Sciences, 2021)
Like-named read-outs stand apart in the source and are kept apart here.

Columns and labels:
TDP2 = molecular target: T1, TDP2 (Homo sapiens, UniProt O95551); test: Gel-based TDP2 activity assay; type: biochemical
T1 construct: His-tag (N); made in house; host or cells: E. coli BL21 (DE3)
T1 sequence (O95551 1-362): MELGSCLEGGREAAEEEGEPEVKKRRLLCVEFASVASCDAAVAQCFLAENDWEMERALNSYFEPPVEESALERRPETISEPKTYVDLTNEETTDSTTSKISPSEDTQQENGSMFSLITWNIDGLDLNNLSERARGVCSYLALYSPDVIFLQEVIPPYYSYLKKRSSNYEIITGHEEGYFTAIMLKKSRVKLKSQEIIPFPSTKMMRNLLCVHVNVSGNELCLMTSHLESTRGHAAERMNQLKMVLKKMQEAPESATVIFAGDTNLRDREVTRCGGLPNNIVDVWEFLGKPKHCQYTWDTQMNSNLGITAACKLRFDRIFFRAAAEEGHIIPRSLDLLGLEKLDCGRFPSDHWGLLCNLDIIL
Description: To study the ability of the investigated compounds to inhibit TDP2 activity, we separated the TDP2 reaction products under denaturing conditions in polyacrylamide gel (PAGE). We tested the ability of TDP2 to eliminate tyrosine residues from the 5’ end of the oligonucleotide substrate in the absence and presence of TDP1 inhibitors. […] The residual TDP2 activity for the best four TDP1 inhibitors, 7g,h and 10a,b, was from 30 to 60%, depending on the tested compound, at a 1 mM concentration of the inhibitor. We tested the ability of compounds 7g,h and 10a,b to inhibit TDP2 activity at 0.2 mM and 0.5 mM concentrations (Figure S26).
The recombinant N-terminally His-tagged TDP2 was expressed in E. coli BL21 (DE3) cells. The plasmid pLATE-31-TDP2 expression vector was constructed as follows. cDNA encoding the TDP2 protein was cloned in the pLATE-31 expression vector using a LICator LIC Cloning and Expression System (Thermo Scientific, Waltham, MA, USA). […]
Oligonucleotide 5′- tyrosine -AAC GTC AGG GTC TTC C- FAM -3′ was synthesized as described above and used for the indication of TDP2 enzyme activity in polyacrylamide gel. […] A Typhoon FLA 9500 phosphorimager (GE Healthcare, Boston, MA, USA) was used for gel scanning and imaging, and the data were analyzed with QuantityOne 4.6.7 software (Bio-Rad Laboratories, Inc., Hercules, CA, USA).

TDP1 = molecular target: T2, TDP1 (Homo sapiens, UniProt Q9NUW8); test: Real-time fluorescence assay of TDP1 activity; type: biochemical
T2 construct: made in house; host or cells: E. coli
T2 sequence (Q9NUW8 whole entry): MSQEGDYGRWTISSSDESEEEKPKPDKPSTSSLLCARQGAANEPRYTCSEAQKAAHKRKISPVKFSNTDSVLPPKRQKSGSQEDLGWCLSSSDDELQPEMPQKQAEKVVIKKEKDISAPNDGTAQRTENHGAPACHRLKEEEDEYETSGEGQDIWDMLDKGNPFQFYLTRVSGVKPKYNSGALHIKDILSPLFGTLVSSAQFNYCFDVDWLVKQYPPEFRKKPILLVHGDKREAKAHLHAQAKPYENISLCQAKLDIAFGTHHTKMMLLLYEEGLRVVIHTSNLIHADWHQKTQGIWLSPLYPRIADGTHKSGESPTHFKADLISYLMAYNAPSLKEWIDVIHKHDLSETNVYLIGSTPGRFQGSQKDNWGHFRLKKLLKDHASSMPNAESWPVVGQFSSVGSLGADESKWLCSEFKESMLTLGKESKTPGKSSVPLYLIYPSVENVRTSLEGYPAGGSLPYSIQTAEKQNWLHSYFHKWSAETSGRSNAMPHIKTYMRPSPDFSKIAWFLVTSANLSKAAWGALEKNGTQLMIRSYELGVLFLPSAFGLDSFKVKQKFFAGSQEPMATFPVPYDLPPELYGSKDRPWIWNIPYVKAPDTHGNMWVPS

Structure (SMILES) | TDP2 inhibition (in words) (TDP2) | IC50 (TDP1; real-time fluorescent assay, 1.5 nM TDP1, 50 nM oligonucleotide, read-out: IC50 (TDP1)) [nM] | IC50 (TDP1) [nM] | TDP1 inhibition (in words) (TDP1; in the concentration range of the derivatives' IC50)
CC(=O)C1=C(O)C=C2Oc3c(C(=O)C[S+]([O-])c4nc5ccccc5s4)c(O)c(C)c(O)c3[C@@]2(C)C1=O (stereo partly drawn) [10a, (2R)-4-acetyl-10-[2-(1,3-benzothiazole-2-sulfinyl)acetyl]-5,11,13-trihydroxy-2,12-dimethyl-8-oxatricyclo[7.4.0.0^2,7]trideca-1(13),4,6,9,11-pentaen-3-one] | moderately inhibit TDP2 | 2100 ± 200 |  | 
CC(=O)c1c(O)c(C)c(O)c2c1OC1=CC(=O)C(C(C)=O)C(=O)C12C (centres unmarked) [UA, usnic acid] | did not inhibit TDP2 |  | > 50000 | does not inhibit TDP1
